Columns and labels:
patients with HGPS = assay: Life expectancy versus progerin decrease and time on lonafarnib therapy (dynamic model based on cRMST); format: in vivo, human
Source text: To quantify increase in life expectancy as it related to decrease in progerin and duration of time on lonafarnib therapy, the methodology by Yang et al. (2021), which proposes a dynamic model that utilizes a series of landmark time points (Dafni, 2011) based on the conditional restricted mean survival time (cRMST), was utilized. This analysis also adjusted for sex and age at baseline.
Next, the relationship between lonafarnib treatment duration and change in life expectancy with extent of change in plasma progerin was assessed (FIG. 7, Table 7). This analysis included samples from patients with a baseline pre-therapy and at least one on-treatment progerin measurement (N=65 patients). […] Three representative wide-ranging examples of on-therapy progerin decreases (1,000, 10,000 and 15,000 pg/mL) spanning 10 years on treatment are graphed in FIG. 7. Patient lifespan increased in all 3 examples.

[1] = children with HGPS treated with lonafarnib during a clinical trial; cited from earlier work
plasma progerin = assay: Plasma progerin (SMC progerin immunoassay) in HGPS clinical trial patients on therapy; format: in vivo, human
Source text: An SMC ultrasensitive immunoassay for the detection of plasma progerin was developed. Overall, the assay employed a sandwich immunoassay format with an anti-lamin A capture antibody coated on magnetic microparticles, and an anti-progerin specific detection antibody conjugated to a fluorescent tag (FIG. 1) run in a 96-well plate. Progerin-bound detection antibody was eluted and read as single molecules using a confocal laser.
The SMC assay for measuring Progerin was as previously described (Todd et al.), except that magnetic microparticles (MP) coated with capture antibodies and detection reagents were specific to the progerin assay (FIG. 1). Briefly, the progerin capture antibody (mouse Mab anti-Lamin A+C, clone: 131C3 Abcam, epitope between amino acid residues 319-566, common to Lamins A, C and progerin) was coated onto MP at 25 μg antibody/mg MP. Samples were exposed to the MP-capture antibody, to specifically bind analyte, followed by one plate wash to remove unbound material. Next, fluorescently labeled progerin-specific detection antibody (Mouse Mab, clone: 13A4, from Millipore, epitope between amino acids 604 and 611 of progerin, which cross the deletion region of lamin A), pre-diluted to 2,000 ng/mL in assay buffer and then filtered through a 0.2 μm filter (MilliporeSigma), was added to wells. Plates were then washed 4 times to remove any unbound detection antibody. All MPs were then transferred from the initial 96-well assay plate to a new plate to avoid eluting any non-specific plate-bound detection antibody. Progerin-bound detection antibody was then eluted by pH shift using a proprietary glycine buffer, transferred to a new plate and detected by SMC using the Erenna Immunoassay System software (SgxLink™). The raw signal data and the interpolated value data obtained from SgxLink were transferred to Excel where precision was then calculated for the replicate wells. The acceptance specification for raw signal and interpolated values was precision and recovery bias≤20%.
A 12-point standard curve of recombinant progerin (Abcam 93918) diluted in EMD standard diluent, a synthetic serum-based solution containing a proprietary mixture of Tris buffer and carrier protein (emdmillipore.com), was run on each plate in triplicate. The standard curve was used to determine progerin concentration in unknown samples. Samples were diluted in standard diluent so that anticipated progerin fell within the dynamic range of the standard curve. All reported progerin and SD are dilution-corrected. All samples were tested in duplicate, unless triplicate is specified.
Human clinical data was obtained from The PRF International Progeria Registry, Diagnostics Program, and Medical and Research Database (available online at progeriaresearch.org). HGPS plasma and serum were obtained from The PRF Cell and Tissue Bank (available online at progeriaresearch.org). Clinical trial samples were donated to the Bank from Boston Children's Hospital (BCH) with informed consent or approval from the BCH Committee on Clinical Investigation. Trial samples were collected in a fasting state, in the morning just prior to treatment dosing as trough samples, except pK samples which were collected at trough and then at specified times post-trough. Non-trial samples were not regulated as to time of day collected. Some nonHGPS healthy human plasma samples were obtained from ProMedDx. HGPS and nonHGPS plasma sample IDs were assigned HGPI and NPI prefixes, respectively.
For analysis, samples were fully thawed at RT for <5 min, lightly mixed, diluted in standard diluent before transferring into filter plate wells (MilliporeSigma MSBVN1210). Patient plasma volumes required for analysis were 200 or 100 μl (nonHGPS 1:1 and 1:2) and 8 μl (HGPS 1:25) to generate duplicates. Filter plates with sample were centrifuged for 10 minutes to pull sample through the filters. Filtrate was then assessed as described. […]

children with HGPS = children with HGPS treated with lonafarnib; cited from earlier work

Compound: NC(=O)N1CCC(CC(=O)N2CCC([C@H]3c4ncc(Br)cc4CCc4cc(Cl)cc(Br)c43)CC2)CC1 [lonafarnib]
- estimated increase in life expectancy (patients with HGPS; 13 patients on therapy for over 10 years): ~6 years
- increase in average lifespan (patients with HGPS; from 14.5 to over 20 years of age, 13 patients on therapy over 10 years): greater than 40%
- Cmax [1]: 2640 ng/mL
- average progerin, consecutive Triple Therapy vs on-treatment lonafarnib monotherapy extension visits (plasma progerin; 10 patients, extension 4.1±0.5 years, p=0.99): no significant differences
- average decreases in progerin from baseline (plasma progerin; ProLon1, 5 remaining visits, lonafarnib 150 mg/m^2, N=22-25, all p<0.0001): 50-62%
- progerin at 150 mg/m^2 lonafarnib versus the 115 mg/m^2 dose (plasma progerin; ProLon1, each of the 4 trial visits after the 8-month visit, N=22-25, all p<0.05): significantly decreased
- average progerin decrease from baseline (plasma progerin; ProLon1, month 4, lonafarnib 115 mg/m^2, N=25, p<0.0001): 48%
- average difference of progerin trough (lower) from 2-, 4- and 8-hours post-dose (plasma progerin; ProLon1 pK samples, lonafarnib 115 mg/m^2, all p<0.05): about 3,000 pg/mL
- progerin post-dose (hours 1,2,4,6,8) vs. trough levels (plasma progerin; ProLon1 pK samples, lonafarnib 150 mg/m^2, all p≥0.05): did not demonstrate significant changes
- average progerin decrease from baseline (plasma progerin; ProLon2, lonafarnib monotherapy 150 mg/m^2, dosing period, N=26, p<0.0001): 36.7%
- time to significant decrease of plasma progerin levels (plasma progerin; lonafarnib therapy, HGPS patients): ≤ 4 months
- average decreases in progerin from baseline (plasma progerin; long-term continuous therapy subgroup N=13, all subsequent time points, 150 mg/m^2, up to 9.8±0.5 years, p<0.0001): 56-74%
- average progerin decrease from baseline (plasma progerin; long-term continuous therapy subgroup N=13, month 4, 115 mg/m^2, p<0.0001): 48%
- average decrease of trial patients' plasma progerin (plasma progerin; on therapy, HGPS trial patients): more than 14,000 pg/mL
- average on-therapy plasma progerin decrease from baseline untreated (plasma progerin; overall, all trials, HGPS patients, p<0.0001): 38%
- average on-therapy plasma progerin (plasma progerin; overall, all trials, baseline untreated 32,726±12,659 pg/mL): 20,211±10,190 pg/mL
- increased survival, estimated, on average (children with HGPS): 2.5 years

From US20240255529A1, “NOVEL ASSAY AND NOVEL METHODS OF TREATING AGING-RELATED CONDITIONS” (The Progeria Research Foundation, priority 2021, published 2024)
